Experimental data taken from patent US20120115852A1, “HETEROCYCLIC COMPOUNDS AS AUTOTAXIN INHIBITORS” (Merck Patent Gesellschaft Mit Beschrankter Haftung, priority 2009, published 2012).

Target: T1, recombinant autotaxin (Homo sapiens, UniProt Q13822)
T1 construct: made in house; host or cells: Hi5 insect cells (baculovirus)
Experiment: Autotaxin test (enzyme test), Amplex Red fluorescence with LPC substrate
Format: biochemical
Details: autotaxin inhibition (enzyme test); for remaining activity at 10 µM: 10 μM compound, read-out: % Control at 10 μM
Summary of the method: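 Purified recombinant autotaxin (baculovirus Hi5-expressed) pre-incubated with compound 30 min at 22° C, then LPC (final 75 μM) added and reacted 90 min at 37° C in Tris pH 8 buffer with CaCl2. Choline released was coupled via alkaline phosphatase, choline oxidase and peroxidase to Amplex Red; resorufin fluorescence read in kinetic mode (ex 485/em 612 nm).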

Row | remaining activity at 10 µM [%] | IC50 [nM] | SMILES
1 | 11 | > 1000 | CC(C)(C)CC(=O)N1CCN2C(=O)c3cc(-c4ccc(Cl)cc4F)ccc3NC(=O)[C@H]2C1 [Compound A100, (R)-7-(4-Chloro-2-fluorophenyl)-2-(3,3-dimethyl-butyryl)-1,3,4,11a-tetrahydro-2H,10H-2,4a,10-triazadibenzo[a,d]cycloheptene-5,11-dione]
2 | 37 | > 1000 | O=C1Nc2ccc(-c3ccc(Cl)cc3)cc2C(=O)N2CCN(C(=O)c3ccccn3)CC12 (stereo not shown) [Compound A51, 7-(4-Chlorophenyl)-2-(pyridine-2-carbonyl)-1,3,4,11a-tetrahydro-2H,10H-2,4a,10-triaza-dibenzo[a,d]cycloheptene-5,11-dione]
3 | 84 |  | CN(C)c1ccc(C(=O)N2CCN3C(=O)c4cc(-c5ccc(Cl)cc5)ccc4NC(=O)[C@H]3C2)cc1 [Compound A9, (R)-7-(4-Chlorophenyl)-2-(4-dimethylamino-benzoyl)-1,3,4,11a-tetrahydro-2H,10H-2,4a,10-triazadibenzo[a,d]cycloheptene-5,11-dione]
4 | 44 |  | CC(C)(C)[C@H](N)C(=O)N1CCN2C(=O)c3cc(-c4ccc(Cl)cc4)ccc3NC(=O)[C@@H]2C1 [Compound A80, (S)-2-((S)-2-Amino-3,3-dimethylbutyryl)-7-(4-chloro-phenyl)-1,3,4,11a-tetrahydro-2H,10H-2,4a,10-triaza-dibenzo[a,d]cycloheptene-5,11-dione]
5 | 48 | > 1000 | Cc1cccc(C(O)C(=O)N2CCN3C(=O)c4cc(-c5ccc(Cl)cc5)ccc4NC(=O)C3C2)c1 (stereo not shown) [Compound A44, 7-(4-Chlorophenyl)-2-(2-hydroxy-2-m-tolylacetyl)-1,3,4,11a-tetrahydro-2H,10H-2,4a,10-triaza-dibenzo[a,d]cycloheptene-5,11-dione]
6 | 73 |  | O=C1Nc2ccc(-c3ccco3)cc2C(=O)N2CCN(C(=O)CO)C[C@H]12 [Compound A6, (R)-7-Furan-2-yl-2-(2-hydroxyacetyl)-1,3,4,11a-tetrahydro-2H,10H-2,4a,10-triazadibenzo[a,d]-cycloheptene-5,11-dione]
7 | 40 | > 1000 | CC(C)(C)[C@H](O)C(=O)N1CCN2Cc3cc(-c4ccc(Cl)cc4)ccc3NC(=O)C2C1 (stereo partly drawn) [Compound 57, 7-(4-Chlorophenyl)-2-((S)-2-hydroxy-3,3-dimethylbutyryl)-1,3,4,5,10,11a-hexahydro-1H-2,4a,10-triazadibenzo[a,d]cyclohepten-11-one]
8 | 63 | > 1000 | O=C1Nc2ccc(-c3ccc(Cl)cc3)cc2CN2CCN(C(=O)[C@@H]3CCCN3C3CCNCC3)CC12 (stereo partly shown) [Compound A176]
9 | 16 | > 1000 | O=C1Nc2ccc(-c3ccc(Cl)cc3F)cc2C(=O)N2CCN(C(=O)[C@@H]3CCCN3C3CCNCC3)C[C@H]12 [Compound A117, (R)-7-(4-Chloro-2-fluorophenyl)-2-((S)-1-piperidin-4-ylpyrrolidine-2-carbonyl)-1,3,4,11a-tetrahydro-2H,10H-2,4a,10-triazadibenzo[a,d]cycloheptene-5,11-dione]
10 | 73 | > 1000 | CC(C)(C)CC(=O)N1CCN2Cc3cc(-c4ccccc4F)ccc3NC(=O)C2C1 (stereo not shown) [Compound 26, 2-(3,3-dimethylbutyryl)-7-(2-fluorophenyl)-1,3,4,5,10,11a-hexahydro-2H-2,4-a,10-triazadibenzo[a,d]cyclohepten-11-one]
11 |  | 100 to 1000 | CC(C)(C)[C@H](O)C(=O)N1CCN2C(=O)c3cc(-c4ccc(Cl)cc4)ccc3NC(=O)C2C1 (stereo partly drawn) [Compound A34, 7-(4-Chlorophenyl)-2-((S)-2-hydroxy-3,3-dimethylbutyryl)-1,3,4,11a-tetrahydro-2H,10H-2,4a,10-triazadibenzo[a,d]cycloheptene-5,11-dione]
12 | 52 | > 1000 | CC(C)(C)COC(=O)N1CCN2C(=O)c3cc(-c4ccc(Cl)cc4)ccc3NC(=O)C2C1 (stereo not shown) [Compound A168]
13 | 15 | > 1000 | CN1CCN(C(=O)CN2C(=O)[C@H]3CN(C(=O)CC(C)(C)C)CCN3C(=O)c3cc(-c4ccc(Cl)cc4F)ccc32)CC1 [Compound A149]
14 | -14 | 100 to 1000 | CC(C)(C)CC(=O)N1CCN2C(=O)c3cc(-c4cc(F)c(Cl)c(F)c4)ccc3NC(=O)C2C1 (stereo not shown) [Compound A79, 7-(4-Chloro-3,5-difluorophenyl)-2-(3,3-dimethyl-butyryl)-1,3,4,11a-tetrahydro-2H,10H-2,4a,10-triazadibenzo[a,d]cycloheptene-5,11-dione]
15 | 78 |  | Cc1nc(C)c(C(=O)N2CCN3C(=O)c4cc(-c5ccc(Cl)cc5)ccc4NC(=O)C3C2)s1 (stereo not shown) [Compound A73, 7-(4-Chlorophenyl)-2-(2,4-dimethylthiazole-5-carbonyl)-1,3,4,11a-tetrahydro-2H,10H-2,4a,10-triazadibenzo[a,d]cycloheptene-5,11-dione]
16 | 63 | > 1000 | O=C1Nc2ccc(-c3ccccc3F)cc2C(=O)N2CCN(C(=O)CCc3ccccn3)CC12 (stereo not shown) [Compound A20, 7-(2-Fluorophenyl)-2-(3-pyridin-2-ylpropionyl)-1,3,4,11a-tetrahydro-2H,10H-2,4a,10-triaza-dibenzo[a,d]cycloheptene-5,11-dione]
17 | -21 | > 1000 | CC(C)(C)C(=O)N1CCN2C(=O)c3cc(-c4ccc(Cl)cc4)ccc3NC(=O)C2C1 (stereo not shown) [Compound A109, 7-(4-Chlorophenyl)-2-(2,2-dimethylpropionyl)-1,3,4,11a-tetrahydro-2H,10H-2,4a,10-triaza-dibenzo[a,d]cycloheptene-5,11-dione]
18 | 8 | 100 to 1000 | CN1CCC(N2CCC[C@H]2C(=O)N2CCN3C(=O)c4cc(-c5ccc(Cl)cc5F)ccc4NC(=O)[C@H]3C2)CC1 [Compound A118, (R)-7-(4-Chloro-2-fluorophenyl)-2-[(S)-1-(1-methylpiperidin-4-yl)pyrrolidine-2-carbonyl]-1,3,4,11a-tetrahydro-2H,10H-2,4a,10-triaza-dibenzo[a,d]cycloheptene-5,11-dione]
19 | -6 | > 1000 | O=C1Nc2ccc(-c3ccc(Cl)cc3)cc2C(=O)N2CCN(C(=O)[C@@H](O)C3CCCCC3)CC12 (stereo partly drawn) [Compound A113, 7-(4-Chlorophenyl)-2-((S)-2-cyclohexyl-2-hydroxy-acetyl)-1,3,4,11a-tetrahydro-2H,10H-2,4a,10-triazadibenzo[a,d]cycloheptene-5,11-dione]
20 | 3 | 100 to 1000 | CC(C)(C)CC(=O)N1CCN2C(=O)c3cc(-c4ccc(Cl)cc4F)ccc3N(CCN3CCOCC3)C(=O)[C@@H]2C1 [Compound A161]
21 |  | > 1000 | O=C1Nc2ccc(-c3ccccc3F)cc2C(=O)N2CCN(C(=O)[C@@H]3CSCN3)CC12 (stereo partly drawn) [Compound A12, 7-(2-Fluorophenyl)-2-((R)-thiazolidine-4-carbonyl)-1,3,4,11a-tetrahydro-2H,10H-2,4a,10-triaza-dibenzo[a,d]cycloheptene-5,11-dione]
22 | 81 |  | CC(C)(C)CC(=O)N1CCN2C(=O)c3cc(-c4cc(C(F)(F)F)ccc4F)ccc3NC(=O)C2C1 (stereo not shown) [Compound A83, 2-(3,3-Dimethylbutyryl)-7-(2-fluoro-5-trifluoromethyl-phenyl)-1,3,4,11a-tetrahydro-2H,10H-2,4a,10-triazadibenzo[a,d]cycloheptene-5,11-dione]
